From patent publication US20120301895A1, “METHODS OF MODULATING BINDING OF SON OF SEVENLESS TO PHOSPHATIDIC ACID AND IDENTIFYING COMPOUNDS THAT MODULATE SUCH BINDING” (THE RESEARCH FOUNDATION OF STATE UNIVERSITY OF NEW YORK, priority 2007, published 2012)

How the values were obtained:
[1] = tested on: T24 cells; assay: Cell viability and PARP cleavage in T24 cells; type: cell-based, human; conditions: honokiol 20 μM, 0.5% serum
Method: (§1) In FIG. 17A, T24 and Calu1 cells (obtained from the American Type Culture Collection) were plated in DMEM containing 10% serum for 48 hr and then shifted to either 10% serum or 0.5% serum overnight as indicated. Honokiol (20 μM) or control ethanol was then added for 4 hr as indicated. [^3H]-Myristate was added with the honokiol. After 4 hr, BtOH (0.7%) was added for 20 min, at which time the cells were harvested and the level of phosphatidyl-BtOH (P-Bt) was determined as in FIGS. 12A-C. The experiments shown are representative of at least two independent experiments. In FIG. 17B, T24 and Calu-1 cells were plated in DMEM with 10% serum for 48 hr then changed to DMEM containing either 10% or 0.5% serum overnight as indicated. Honokiol (20 μM) or control ethanol was then added either at the time of changing media (24 hr), or 4 hr before harvesting as in FIGS. 14A-E, at which time the cells were examined for cell viability or PARD cleavage. […]
Cell viability was determined by trypan blue exclusion. […] After 10 min, trypan blue uptake (dead cells) was determined by counting on a hemocytometer. Apoptosis was evaluated by examination of cleavage of the caspase 3 substrate PARP as described previously (Chen et al., “Alternative Phospholipase D/mTOR Survival Signal in Human Breast Cancer Cells,” Oncogene 24:672-9 (2005), which is hereby incorporated by reference in its entirety). […]

[2] = tested on: PLD activity in T24 cells; assay: In vivo PLD activity in T24 bladder cancer cells; type: cell-based, human; conditions: honokiol 20 μM, 4 hr
Method: as §1, with “indicated.” for “indicated. Honokiol (20 μM) or control ethanol was then added either at the time of changing media (24 hr), or 4 hr before harvesting as in FIGS. 14A-E, at which time the cells were examined for cell viability or PARD cleavage.”
For in vivo PLD activity, cells were plated in 60 mm culture dishes in DMEM with 10% serum at a density that would allow them to grow to about 80% confluence after 2 days, then cells were shifted to DMEM containing 0.5% or 10% serum as indicated in the figure legends overnight. […] Briefly, PLD activity was measured by the release of [methyl-^3H] choline from [choline-methyl-^3H]dipalmitoyl-phosphatidylcholine. […] Free [methyl-^3H] choline was separated from precipitated lipids and proteins by centrifugation and was analyzed by liquid scintillation counting. […]

C=CCc1ccc(O)c(-c2ccc(O)c(CC=C)c2)c1 [honokiol, Honokiol]
PARP cleavage [1]: induced | cell death [1]: induced | stress-induced PLD activity ([2]; 0.5% serum): suppressed | PLD activity observed in the presence of serum ([2]; 10% serum): little effect
